System: serum Total Testosterone, LH, FSH in women with PCOS
Experiment: Phase 2a clinical trial, PolyCystic Ovary Syndrome (PCOS)
Format: in vivo, human
Experimental: Clinical Evaluation of Compound n^o 5 for the Treatment of PolyCystic Ovary Syndrome (PCOS)
Objectives: The study objectives are to evaluate the effect of compound n^o 5 on the serum levels of Total Testosterone (TT), Luteinizing Hormone (LH), Follicle Stimulating Hormone (FSH) and LH:FSH ratio after 12 weeks of treatment.
Design and Setting: The Phase 2a clinical trial was conducted in 48 patients, divided over 2 treatment groups of 24 patients each. One group received placebo while the other group received 180 mg of compound n^o 5 once daily (QD) for a period of 12 weeks. The Phase 2a trial was double blind and randomized. […] The study was conducted on an ambulatory basis where patients were asked to visit the clinical site on the first day of dosing and at weeks 3, 6, 9 and 12 during the treatment period with a follow-up visit 2-3 weeks after conclusion of dosing.
Blood draws for LH, FSH and TT were taken every visit between 2 and 8 hours after drug intake (baseline and week 3-6-12). At week 9 the blood samples were taken in the morning before drug intake (i.e. at trough PK concentrations for compound n^o 5). These blood draws were the basis for assessing the primary (TT) and secondary (LH, FSH, LH:FSH ratio) endpoints. The primary endpoint of Total Testosterone was measured according to GLP using an LC-MS/MS method.
PCOS is typically characterized by excessive ovarian androgen production, failure of ovulation, and slightly enlarged ovaries with numerous peripheral small follicles that appear as cysts. The disorder is commonly accompanied by infertility. Typically, the clinical features of PCOS are associated with hypersecretion of LH and androgens (TT) but with normal serum concentrations of FSH hormone. Laboratory examinations reveal elevated TT levels in about 50% of the patients, accompanied by an elevated LH:FSH ratio (>2) due to the imbalanced secretion of both hormones (a ratio of 1 is considered normal).

Cc1nsc(-c2nnc3n2CCN(C(=O)c2ccc(F)cc2)[C@@H]3C)n1 [Compound 5, (R)-(4-fluorophenyl)(8-methyl-3-(3-methyl-1,2,4-thiadiazol-5-yl)-5,6-dihydro-[1,2,4]triazolo[4,3-a]pyrazin-7(8H)-yl)methanone]
FSH secretion (180 mg QD, women with PCOS): preserved | LH (180 mg QD, women with PCOS): significant decrease | LH:FSH in comparison of placebo (180 mg QD, women with PCOS): significantly reduced | TT in comparison of placebo (180 mg QD, women with PCOS): significantly reduced | Total Testosterone (mean) (Baseline, 180 mg QD group): 2.16 nmol/L | Total Testosterone (mean) (Week 6, 180 mg QD oral): 1.41 nmol/L | Total Testosterone (mean) (Week 12, 180 mg QD oral): 1.39 nmol/L

Reference: patent US20240199618A1, “NOVEL N-ACYL-[3-SUBSTITUTED]-[8-SUBSTITUTED]-5,6-DIHYDRO-[1,2,4]TRIAZOLO[4,3-a]PYRAZINES AS SELECTIVE NK-3 RECEPTOR ANTAGONISTS, PHARMACEUTICAL COMPOSITION, METHODS FOR USE IN NK-3 RECEPTOR-MEDIATED DISORDERS” (Ogeda SA, priority 2013, published 2024)
